Results published in ChEMBL document CHEMBL3124906 (J Nat Prod, 2014).
The source made the active and inactive calls. No cut-off for these calls is given here.

Tests used:
Influenza A virus [1] = assay: Antiviral activity against Influenza A virus J/8178/09 infected in MDCK cells assessed as inhibition of virus-induced cytopathic effect at 50 uM after 48 hrs; type: functional; settings: for inhibition at 50 µM: Influenza A virus, J/8178/09, MDCK, 48 h
Influenza A virus [2] = assay: Antiviral activity against Influenza A virus (A/Hong Kong/1/1968(H3N2)) infected in MDCK cells assessed as inhibition of virus-induced cytopathic effect at 50 uM after 48 hrs; type: functional; settings: for inhibition at 50 µM: Influenza A virus, MDCK, 48 h
[3] = Induction of fluorescence quenching at 100 uM relative to 4-methylumbelliferone; type: physicochemical
[4] = Induction of fluorescence at 100 uM relative to 4-methylumbelliferone; type: physicochemical
[5] = Cytotoxicity against MDCK cells after 72 hrs; type: cell-based, Canis lupus familiaris; settings: dog
[6] = Inhibition of Clostridium perfringens neuraminidase by fluorescence based assay
[7] = Inhibition of Clostridium perfringens neuraminidase by chemiluminescence based assay

Row | Structure (SMILES) | inhibition (Influenza A virus [1]) | inhibition (Influenza A virus [2]) | Activity [3] [%] | Activity [4] [%] | CC50 at 72 h [5] [µM] | inhibition at 50 µM (Influenza A virus [1]) [%] | IC50 [6] [µM] | IC50 [7] [µM] | inhibition (INH) (Influenza A virus [1]) [%] | inhibition (INH) (Influenza A virus [2]) [%] | inhibition at 50 µM (Influenza A virus [2]) [%]
1 | O=C1C[C@@H](c2ccc(O[C@@H]3O[C@H](CO)[C@@H](O)[C@H](O)[C@H]3O[C@H]3OC[C@@](O)(COC(=O)c4c[nH]c5ccccc45)[C@@H]3O)cc2)Oc2cc(O)ccc21 | inactive | inactive | – | – | – | – | – | – | – | – | –
2 | CC1(C)C=Cc2c(ccc3c2OCC(O)C3)O1 (configuration not stated) | – | inactive | 15 | 0 | 336 | 36.1 | 2.88 | 0.64 | – | – | –
3 | O=C1C[C@@H](c2ccc(O[C@@H]3O[C@H](CO)[C@@H](O)[C@H](O)[C@H]3O)cc2)Oc2cc(O)ccc21 [LIQUIRITIN] | inactive | inactive | – | – | > 239 | – | – | – | – | – | –
4 | O=C1C[C@@H](c2ccc(O)cc2)Oc2cc(O[C@@H]3O[C@H](CO)[C@@H](O)[C@H](O)[C@H]3O)cc(O)c21 [PRUNIN] | – | inactive | – | – | 126 | – | – | – | 49.6 | – | –
5 | CC(C)=CCc1c(O)ccc(C(=O)/C=C/c2cc(O)c3c(c2)C=CC(C)(C)O3)c1O | – | – | – | – | 135 | – | – | – | 29.7 | 48.1 | –
6 | CC1(C)C=Cc2c(ccc([C@@H]3COc4c(ccc5c4C=CC(C)(C)O5)C3)c2O)O1 [HISPAGLABRIDIN B] | – | – | 15.1 | 0.05 | 39.2 | 48.4 | 4.23 | 0.17 | – | – | 31.2
7 | COc1ccc(-c2coc3cc(O)ccc3c2=O)cc1 [FORMONONETIN] | – | – | -12.4 | 15.4 | 123 | – | 13.6 | 0.34 | – | – | –
8 | CC(C)=CCc1cc([C@@H]2CC(=O)c3ccc(O)c(CC=C(C)C)c3O2)ccc1O [GLABROL] | inactive | inactive | 37.4 | 1.18 | 25.4 | – | 2.17 | 0.13 | – | – | –
9 | O=C(/C=C/c1ccc(O)cc1)OC[C@]1(O)CO[C@H](O[C@H]2[C@H](Oc3ccc(/C=C/C(=O)c4ccc(O)cc4O)cc3)O[C@H](CO)[C@@H](O)[C@@H]2O)[C@H]1O | inactive | inactive | – | – | – | – | – | – | – | – | –
10 | CCOC(=O)C1=C[C@@H](OC(CC)CC)[C@H](NC(C)=O)[C@@H](N)C1 [OSELTAMIVIR] | – | – | 12.8 | 0.05 | – | – | 125 | 110 | – | – | –
11 | CC1(C)C=Cc2c(ccc(-c3coc4cc(O)ccc4c3=O)c2O)O1 [GLABRONE] | – | – | 28.3 | 0.68 | 90.8 | – | 11.7 | 0.07 | – | – | 24.2
12 | O=C1C[C@@H](c2ccc(O)cc2)Oc2cc(O)ccc21 [LIQUIRTIGENIN] | inactive | inactive | – | – | 301 | – | – | – | – | – | –
